Test results taken from ChEMBL document CHEMBL3044741, “Synthesis of novel biologically active methylene derivatives of sydnones” (Med Chem Res, 2013).
Converted amounts (≈) assume the structure as drawn.

Columns and labels:
Staphylococcus aureus [1] = experiment: Antibacterial activity against Staphylococcus aureus MTCC 96 after 24 hrs by broth dilution method; assay type: functional; conditions: MTCC 96, 24 h
Human alphaherpesvirus 3 [2] = experiment: Antiviral activity against thymidine kinase-deficient Varicella-zoster virus infected in HEL cells assessed as reduction in plaque formation; assay type: functional, organism-based; conditions: Human alphaherpesvirus 3, HEL
Aspergillus niger [3] = experiment: Antifungal activity against Aspergillus niger MTCC 282 at 250 ug/ml after 74 hrs by Kirby-Bauer method; assay type: functional; conditions: MTCC 282, 74 h, read-out: IZ
Candida albicans [4] = experiment: Antifungal activity against Candida albicans MTCC 227 at 250 ug/ml after 74 hrs by Kirby-Bauer method; assay type: functional; conditions: MTCC 227, 74 h, read-out: IZ
[5] = tested on: Human immunodeficiency virus 2; experiment: Antiviral activity against HIV2 ROD infected in MT4 cells assessed as inhibition of virus-induced cytopathogenicity by MTT assay; assay type: functional, organism-based; conditions: Human immunodeficiency virus 2, ISOLATE ROD
Escherichia coli [6] = experiment: Antibacterial activity against Escherichia coli MTCC 443 at 250 ug/ml after 24 hrs by Kirby-Bauer method; assay type: functional; conditions: MTCC 443, 24 h, read-out: IZ
Aspergillus clavatus [7] = experiment: Antifungal activity against Aspergillus clavatus MTCC 1323 at 250 ug/ml after 74 hrs by Kirby-Bauer method; assay type: functional; conditions: for zone of inhibition at 250 µg/mL: MTCC 1323, 74 h, read-out: IZ
[8] = Cytotoxicity against human HEL cells; assay type: cell-based
Pseudomonas aeruginosa [9] = experiment: Antibacterial activity against Pseudomonas aeruginosa MTCC 424 at 250 ug/ml after 24 hrs by Kirby-Bauer method; assay type: functional; conditions: MTCC 424, 24 h, read-out: IZ
[10] = Cytotoxicity against human HEL cells assessed as alteration in cell morphology; assay type: cell-based
Human alphaherpesvirus 3 [11] = experiment: Antiviral activity against Varicella-zoster virus Oka expressing thymidine kinase infected in HEL cells assessed as reduction in plaque formation; assay type: functional, organism-based; conditions: Human alphaherpesvirus 3, strain Oka vaccine
Cytomegalovirus [12] = experiment: Antiviral activity against Cytomegalovirus Davis in HEL cells assessed as reduction in plaque formation; assay type: functional, organism-based; conditions: Human betaherpesvirus 5, Davis
Streptococcus pyogenes [13] = experiment: Antibacterial activity against Streptococcus pyogenes MTCC 442 after 24 hrs by broth dilution method; assay type: functional; conditions: MTCC 442, 24 h
Aspergillus clavatus [14] = experiment: Antifungal activity against Aspergillus clavatus MTCC 1323; assay type: functional
[15] = Selectivity index, ratio of CC50 for human MT4 cells to IC50 for HIV1 3B; assay type: functional
[16] = Cytotoxicity against human MT4 cells by MTT assay; assay type: cell-based
Streptococcus pyogenes [17] = experiment: Antibacterial activity against Streptococcus pyogenes MTCC 442 at 250 ug/ml after 24 hrs by Kirby-Bauer method; assay type: functional; conditions: MTCC 442, 24 h, read-out: IZ
[18] = Selectivity index, ratio of CC50 for human MT4 cells to IC50 for HIV2 ROD; assay type: functional
Escherichia coli [19] = experiment: Antibacterial activity against Escherichia coli MTCC 443 after 24 hrs by broth dilution method; assay type: functional; conditions: MTCC 443, 24 h
Candida albicans [20] = experiment: Antifungal activity against Candida albicans MTCC 227; assay type: functional
[21] = tested on: Human immunodeficiency virus 1; experiment: Antiviral activity against HIV1 3B infected in MT4 cells assessed as inhibition of virus-induced cytopathogenicity by MTT assay; assay type: functional, organism-based; conditions: Human immunodeficiency virus 1, 3B
Staphylococcus aureus [22] = experiment: Antibacterial activity against Staphylococcus aureus MTCC 96 at 250 ug/ml after 24 hrs by Kirby-Bauer method; assay type: functional; conditions: MTCC 96, 24 h, read-out: IZ
Cytomegalovirus [23] = experiment: Antiviral activity against Cytomegalovirus AD-169 infected in HEL cells assessed as reduction in plaque formation; assay type: functional, organism-based; conditions: Human betaherpesvirus 5, AD-169, HEL
Aspergillus niger [24] = experiment: Antifungal activity against Aspergillus niger MTCC 282; assay type: functional
Pseudomonas aeruginosa [25] = experiment: Antibacterial activity against Pseudomonas aeruginosa MTCC 424 after 24 hrs by broth dilution method; assay type: functional; conditions: MTCC 424, 24 h

Cc1ccc(-[n+]2noc([O-])c2CN2CCOCC2)cc1
MIC (Staphylococcus aureus [1]): 100 µg/mL (≈ 363 µM)
EC50 (Human alphaherpesvirus 3 [2]): > 20 µg/mL
zone of inhibition at 250 µg/mL (Aspergillus niger [3]): 18 mm
zone of inhibition at 250 µg/mL (Candida albicans [4]): 23 mm
IC50 [5]: > 16.6 µg/mL
zone of inhibition at 250 µg/mL (Escherichia coli [6]): 19 mm
zone of inhibition at 250 µg/mL (Aspergillus clavatus [7]): 21 mm
CC50 [8]: 38.4 µg/mL (≈ 139 µM)
zone of inhibition at 250 µg/mL (Pseudomonas aeruginosa [9]): 18 mm
MCC [10]: 100 µg/mL
EC50 (Human alphaherpesvirus 3 [11]): > 20 µg/mL
EC50 (Cytomegalovirus [12]): > 20 µg/mL
MIC (Streptococcus pyogenes [13]): 250 µg/mL (≈ 908 µM)
MIC (Aspergillus clavatus [14]): 500 µg/mL (≈ 1820 µM)
Ratio CC50/IC50 [15]: <1
CC50 [16]: 16.6 µg/mL (≈ 60.2 µM)
zone of inhibition at 250 µg/mL (Streptococcus pyogenes [17]): 19 mm
Ratio CC50/IC50 [18]: <1
MIC (Escherichia coli [19]): 200 µg/mL (≈ 726 µM)
MIC (Candida albicans [20]): 500 µg/mL (≈ 1820 µM)
IC50 [21]: > 16.6 µg/mL
zone of inhibition at 250 µg/mL (Staphylococcus aureus [22]): 21 mm
EC50 (Cytomegalovirus [23]): > 20 µg/mL
MIC (Aspergillus niger [24]): 1000 µg/mL (≈ 3630 µM)
MIC (Pseudomonas aeruginosa [25]): 250 µg/mL (≈ 908 µM)

O=C(N[C@H](CO)[C@H](O)c1ccc([N+](=O)[O-])cc1)C(Cl)Cl [CHLORAMPHENICOL]
MIC (Staphylococcus aureus [1]): 50 µg/mL (≈ 155 µM)
zone of inhibition at 250 µg/mL (Escherichia coli [6]): 23 mm
zone of inhibition at 250 µg/mL (Pseudomonas aeruginosa [9]): 21 mm
MIC (Streptococcus pyogenes [13]): 50 µg/mL (≈ 155 µM)
zone of inhibition at 250 µg/mL (Streptococcus pyogenes [17]): 20 mm
MIC (Escherichia coli [19]): 50 µg/mL (≈ 155 µM)
zone of inhibition at 250 µg/mL (Staphylococcus aureus [22]): 21 mm
MIC (Pseudomonas aeruginosa [25]): 50 µg/mL (≈ 155 µM)

NYSTATIN
inhibition zone (IZ) (Aspergillus clavatus [7]): 26 mm
MIC (Aspergillus clavatus [14]): 100 µg/mL
MIC (Candida albicans [20]): 100 µg/mL
MIC (Aspergillus niger [24]): 100 µg/mL

Cc1ccc(-[n+]2noc([O-])c2CN2CCN(C3=Nc4ccccc4Sc4ccccc43)CC2)cc1
MIC (Staphylococcus aureus [1]): 200 µg/mL (≈ 414 µM)
EC50 (Human alphaherpesvirus 3 [2]): > 20 µg/mL
zone of inhibition at 250 µg/mL (Aspergillus niger [3]): 18 mm
zone of inhibition at 250 µg/mL (Candida albicans [4]): 21 mm
IC50 [5]: > 13.6 µg/mL
zone of inhibition at 250 µg/mL (Escherichia coli [6]): 19 mm
zone of inhibition at 250 µg/mL (Aspergillus clavatus [7]): 18 mm
CC50 [8]: 14.8 µg/mL (≈ 30.6 µM)
zone of inhibition at 250 µg/mL (Pseudomonas aeruginosa [9]): 21 mm
MCC [10]: ≥ 20 µg/mL
EC50 (Human alphaherpesvirus 3 [11]): > 20 µg/mL
EC50 (Cytomegalovirus [12]): > 20 µg/mL
MIC (Streptococcus pyogenes [13]): 500 µg/mL (≈ 1030 µM)
MIC (Aspergillus clavatus [14]): 1000 µg/mL (≈ 2070 µM)
Ratio CC50/IC50 [15]: <1
CC50 [16]: 13.7 µg/mL (≈ 28.2 µM)
zone of inhibition at 250 µg/mL (Streptococcus pyogenes [17]): 16 mm
Ratio CC50/IC50 [18]: <1
MIC (Escherichia coli [19]): 250 µg/mL (≈ 517 µM)
MIC (Candida albicans [20]): 1000 µg/mL (≈ 2070 µM)
IC50 [21]: > 13.6 µg/mL
zone of inhibition at 250 µg/mL (Staphylococcus aureus [22]): 19 mm
EC50 (Cytomegalovirus [23]): > 4 µg/mL
MIC (Aspergillus niger [24]): 1000 µg/mL (≈ 2070 µM)
MIC (Pseudomonas aeruginosa [25]): 125 µg/mL (≈ 258 µM)

Cc1cn([C@H]2C[C@H](N=[N+]=[N-])[C@@H](CO)O2)c(=O)[nH]c1=O [ZIDOVUDINE]
IC50 [5]: 0.00094 µg/mL (≈ 0.00352 µM)
Ratio CC50/IC50 [15]: >11587
CC50 [16]: > 25 µg/mL
Ratio CC50/IC50 [18]: >26731
IC50 [21]: 0.0022 µg/mL (≈ 0.00823 µM)

COC1=CC(=O)C[C@@H](C)[C@]12Oc1c(Cl)c(OC)cc(OC)c1C2=O [GRISEOFULVIN]
zone of inhibition at 250 µg/mL (Aspergillus niger [3]): 28 mm
zone of inhibition at 250 µg/mL (Candida albicans [4]): 24 mm
zone of inhibition at 250 µg/mL (Aspergillus clavatus [7]): 24 mm
MIC (Aspergillus clavatus [14]): 100 µg/mL (≈ 283 µM)
MIC (Candida albicans [20]): 100 µg/mL (≈ 283 µM)
MIC (Aspergillus niger [24]): 100 µg/mL (≈ 283 µM)

O=c1[nH]cnc2c1ncn2[C@H]1CC[C@@H](CO)O1 [DIDANOSINE]
IC50 [5]: 3.78 µg/mL (≈ 16 µM)
Ratio CC50/IC50 [15]: >24
CC50 [16]: > 50 µg/mL
Ratio CC50/IC50 [18]: >13
IC50 [21]: 2.09 µg/mL (≈ 8.85 µM)

Cc1ccc(-[n+]2cc([O-])on2)cc1
EC50 (Human alphaherpesvirus 3 [2]): > 20 µg/mL
CC50 [8]: 33.1 µg/mL (≈ 188 µM)
MCC [10]: 100 µg/mL
EC50 (Human alphaherpesvirus 3 [11]): > 20 µg/mL
EC50 (Cytomegalovirus [12]): > 20 µg/mL
EC50 (Cytomegalovirus [23]): > 20 µg/mL

Cc1ccc(-[n+]2noc([O-])c2CN2CCN(CCOCCO)CC2)cc1
MIC (Staphylococcus aureus [1]): 200 µg/mL (≈ 552 µM)
zone of inhibition at 250 µg/mL (Escherichia coli [6]): 16 mm
zone of inhibition at 250 µg/mL (Pseudomonas aeruginosa [9]): 21 mm
MIC (Streptococcus pyogenes [13]): 500 µg/mL (≈ 1380 µM)
zone of inhibition at 250 µg/mL (Streptococcus pyogenes [17]): 16 mm
MIC (Escherichia coli [19]): 500 µg/mL (≈ 1380 µM)
zone of inhibition at 250 µg/mL (Staphylococcus aureus [22]): 19 mm
MIC (Pseudomonas aeruginosa [25]): 250 µg/mL (≈ 690 µM)

CCn1cc(C(=O)O)c(=O)c2cc(F)c(N3CCNCC3)cc21 [NORFLOXACIN]
MIC (Staphylococcus aureus [1]): 10 µg/mL (≈ 31.3 µM)
zone of inhibition at 250 µg/mL (Escherichia coli [6]): 29 mm
zone of inhibition at 250 µg/mL (Pseudomonas aeruginosa [9]): 23 mm
MIC (Streptococcus pyogenes [13]): 10 µg/mL (≈ 31.3 µM)
zone of inhibition at 250 µg/mL (Streptococcus pyogenes [17]): 21 mm
MIC (Escherichia coli [19]): 10 µg/mL (≈ 31.3 µM)
zone of inhibition at 250 µg/mL (Staphylococcus aureus [22]): 28 mm
MIC (Pseudomonas aeruginosa [25]): 10 µg/mL (≈ 31.3 µM)
